Test systems include A498; ACHN; CAKI-1; HCC 2998; HCT-15; HOP-62; HT-29; Hs-578T; IGROV-1; LOX IMVI; MDA-N; Malme-3M; OVCAR-4; OVCAR-8; SF-268; SK-MEL-2; SK-MEL-5; SNB-75; UACC-62; HL-60.
Assay in all cases: NCI anticancer screen, dose series, 48 h

SMILES strings stand for the structures.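 Grown in 96-well plates, cells were treated for 48 hours with each compound at five concentrations. Insufficient inhibition: endpoint recorded as highest concentration tested. Here, GI50 denotes the concentration required for 50% inhibition of growth.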 Calls of active or inactive are those of the source. Rule as the data show it: active = GI50 up to about 1.1 µM and inactive = higher.

`COc1ccc(CN(CCc2c[nH]c3ccccc23)Cc2ccc(OC)cc2)cc1`: the GI50 was 4.24 µM (inactive) in the assay on A498; 3.37 µM (inactive) in the assay on ACHN; 3.94 µM (inactive) in the assay on CAKI-1; 3.34 µM (inactive) with HCC 2998; 3.44 µM with HCT-15; 3.01 µM (inactive) in the assay with HOP-62. Also, the GI50 is 1.29 µM (inactive) with HT-29; 16.7 µM (inactive) in the assay on Hs-578T; 1.8 µM (inactive) in the assay with IGROV-1; 3.15 µM (inactive) in the assay with LOX IMVI; 1.92 µM (inactive) in the assay on MDA-N; 3.04 µM (inactive) with Malme-3M. Moreover, the GI50 in the assay with OVCAR-4 was 3.88 µM (inactive); with OVCAR-8, 3.95 µM (inactive); with SF-268 it was 4.39 µM (inactive); in the assay on SK-MEL-2, 3.9 µM (inactive); in the assay on SK-MEL-5, 2.77 µM (inactive); in the assay with SNB-75 it was 6.25 µM (inactive). In the assay on UACC-62, the GI50 is 2.14 µM (inactive).

For the compound `Cc1ccc(C(CC(=O)C(C)(C)CN2CCCCC2)SCCS(=O)(=O)O)cc1` (stereo not given), the GI50 with A498 was 19.7 µM (inactive); in the assay with ACHN, 25.2 µM (inactive); in the assay with CAKI-1 it was 22.3 µM (inactive); in the assay on HCC 2998, 39.4 µM (inactive); with HCT-15 it was 22.6 µM; in the assay with HOP-62, 36.6 µM (inactive). Besides, the GI50 in the assay with HT-29 was 24 µM (inactive); in the assay on Hs-578T, 30.7 µM (inactive); in the assay with IGROV-1, 33.9 µM (inactive); in the assay on MDA-N it was 31 µM (inactive); in the assay on Malme-3M, 26.4 µM (inactive); in the assay with OVCAR-4, 31.6 µM (inactive). The GI50 with OVCAR-8 was 21.9 µM (inactive); with SF-268, 37.8 µM (inactive); in the assay with SK-MEL-2, 12.5 µM (inactive); in the assay with SK-MEL-5, 23.2 µM (inactive); with SNB-75, 31.3 µM (inactive); in the assay with UACC-62, 21.7 µM (inactive).

For `CC(=O)SSC1(Cl)C(C)(C)C(Cl)(SSC(C)=O)C1(C)C` (stereo not given), the GI50 in the assay with A498 is 67.5 µM (inactive); with ACHN, 63.4 µM (inactive); in the assay with CAKI-1 it was > 100 µM (inactive); in the assay on HCT-15, 34.7 µM; in the assay with HOP-62 it was 44.3 µM (inactive); with HT-29, 49.4 µM (inactive). The GI50 with Hs-578T is > 100 µM (inactive); in the assay on IGROV-1, 51.2 µM (inactive); in the assay on LOX IMVI, 33.3 µM (inactive); in the assay on MDA-N, 65 µM (inactive); in the assay on Malme-3M, 84.5 µM (inactive); in the assay on OVCAR-4 it was 48.1 µM (inactive). Besides, the GI50 with OVCAR-8 was 39.4 µM (inactive); with SF-268, 43.6 µM (inactive); in the assay on SK-MEL-2, > 100 µM (inactive); with SK-MEL-5, 29.8 µM (inactive); in the assay with SNB-75 it was 30.4 µM (inactive); with UACC-62 it was 52.6 µM (inactive).

Take `CCOC(=O)/C=C/[C@H](O[Si](CC)(CC)CC)C(C)(C)C`: the GI50 with A498 was > 100 µM (inactive); with ACHN it was 28.7 µM (inactive); with CAKI-1, > 100 µM (inactive); with HCC 2998, 57.3 µM (inactive); in the assay on HCT-15, 41.5 µM; in the assay with HOP-62 it was 83.6 µM (inactive). Also, the GI50 in the assay with HT-29 was 34.1 µM (inactive); with Hs-578T, > 100 µM (inactive); in the assay with IGROV-1, > 100 µM (inactive); with LOX IMVI, 21.5 µM (inactive); in the assay with MDA-N, 78.2 µM (inactive); in the assay with Malme-3M, > 100 µM (inactive). For the same compound, the GI50 in the assay with OVCAR-4 is 48.1 µM (inactive); in the assay with OVCAR-8 it was > 100 µM (inactive); in the assay on SF-268 it was > 100 µM (inactive); in the assay with SK-MEL-2 it was 23.2 µM (inactive); in the assay with SK-MEL-5, 45.3 µM (inactive); in the assay on SNB-75, > 100 µM (inactive). Moreover, in the assay on UACC-62, the GI50 is 90.2 µM (inactive).

For the compound `Cc1cc(C)c(S(=O)(=O)N2CCN(S(=O)(=O)c3c(C)cc(C)cc3C)OCCCCCO2)c(C)c1`, the GI50 with A498 was > 100 µM (inactive); with ACHN, > 100 µM (inactive); in the assay on CAKI-1, > 100 µM (inactive); with HCT-15 it was over 100 µM; in the assay on HL-60 it was > 100 µM (inactive); in the assay with HOP-62 it was > 100 µM (inactive). Further, the GI50 with HT-29, with Hs-578T, in the assay with IGROV-1, in the assay on LOX IMVI, in the assay on MDA-N and in the assay with Malme-3M was > 100 µM (inactive) in each case. Also, the GI50 with OVCAR-4, in the assay on OVCAR-8, with SF-268, in the assay on SK-MEL-2, with SK-MEL-5 and in the assay with UACC-62 was > 100 µM (inactive) in each case.

With `COc1cc(NC(C)=O)ccc1C(=O)NN1C(=O)/C(=C/c2ccco2)N=C1c1ccccc1`, the GI50 with A498 is 15.4 µM (inactive); in the assay with ACHN, > 50 µM (inactive); with CAKI-1, > 50 µM (inactive); with HCT-15, over 50 µM; in the assay on HL-60, 13.6 µM (inactive); in the assay with HOP-62, 21.4 µM (inactive). Moreover, the GI50 with HT-29 was 36.9 µM (inactive); in the assay with Hs-578T, > 50 µM (inactive); in the assay with IGROV-1, > 50 µM (inactive); in the assay with LOX IMVI, 34.2 µM (inactive); in the assay with MDA-N, 14.9 µM (inactive); in the assay with Malme-3M, > 50 µM (inactive). Besides, the GI50 in the assay on OVCAR-4 is 49.5 µM (inactive); with OVCAR-8, > 50 µM (inactive); in the assay with SF-268, > 50 µM (inactive); in the assay on SK-MEL-2, 14.3 µM (inactive); in the assay on SK-MEL-5 it was 16 µM (inactive); in the assay on SNB-75, > 50 µM (inactive). Also, the GI50 in the assay on UACC-62 was 25.4 µM (inactive).

For `CC(=O)OC[C@@H](OC(C)=O)[C@@H](OC(C)=O)[C@H]1OC[C@@H]2C[C@H]([C@H]1OC(C)=O)N(Cc1ccccc1)O2`, the GI50 in the assay with ACHN, in the assay on CAKI-1, with HCC 2998, in the assay on HL-60, in the assay with HOP-62 and in the assay with HT-29 was > 100 µM (inactive) throughout. The GI50 with Hs-578T, in the assay on IGROV-1, with LOX IMVI, in the assay on MDA-N, in the assay on Malme-3M and in the assay with OVCAR-4 was > 100 µM (inactive) each time. Moreover, the GI50 in the assay with SF-268, in the assay on SK-MEL-2, in the assay on SK-MEL-5, in the assay on SNB-75 and in the assay on UACC-62 was > 100 µM (inactive) in each case.

Take `CCCCCCCC(CC(=O)O)OC(=O)CC(CCCCCCC)OC1OC(C)C(O)C(O)C1OC1OC(C)C(O)C(O)C1O` (stereo not given): the GI50 in the assay with A498 is > 100 µM (inactive); with ACHN it was > 100 µM (inactive); in the assay on CAKI-1, > 100 µM (inactive); with HCC 2998, > 100 µM (inactive); in the assay on HCT-15, over 100 µM; with HOP-62, > 100 µM (inactive). Also, the GI50 in the assay on HT-29 is > 100 µM (inactive); with Hs-578T, 67.6 µM (inactive); in the assay on IGROV-1, 62.2 µM (inactive); in the assay on LOX IMVI, > 100 µM (inactive); in the assay with MDA-N, > 100 µM (inactive); in the assay with Malme-3M, 43.2 µM (inactive). Besides, the GI50 with OVCAR-8, with SF-268, with SK-MEL-2, in the assay with SK-MEL-5, with SNB-75 and with UACC-62 was > 100 µM (inactive) each time.

In the case of `CN1C(=O)C23CCCC2CC1(c1ccccc1)S3` (stereo not given), the GI50 with A498 is > 100 µM (inactive); in the assay on ACHN, > 100 µM (inactive); in the assay on CAKI-1, > 100 µM (inactive); with HCT-15, over 100 µM; in the assay on HL-60 it was 60.7 µM (inactive); in the assay on HOP-62, > 100 µM (inactive). Also, the GI50 in the assay on HT-29 was > 100 µM (inactive); in the assay with Hs-578T, 78.9 µM (inactive); with IGROV-1 it was > 100 µM (inactive); in the assay on LOX IMVI, > 100 µM (inactive); in the assay with MDA-N, > 100 µM (inactive); in the assay on Malme-3M, > 100 µM (inactive). For the same compound, the GI50 in the assay with OVCAR-4 is 56.1 µM (inactive); in the assay on OVCAR-8 it was > 100 µM (inactive); in the assay with SF-268, > 100 µM (inactive); with SK-MEL-2, 49.7 µM (inactive); in the assay with SK-MEL-5, > 100 µM (inactive); in the assay with UACC-62, > 100 µM (inactive).

On to `COc1ccc(OC)c(CNc2ccc(O)c(C(=O)NCCc3ccc(F)cc3)c2)c1`, for which the GI50 in the assay on A498 was 16.4 µM (inactive); with ACHN it was 24 µM (inactive); in the assay on CAKI-1, 21.5 µM (inactive); in the assay with HCC 2998, 3.58 µM (inactive); in the assay on HCT-15, 12.6 µM; in the assay with HOP-62 it was 4.08 µM (inactive). In addition, the GI50 with HT-29 was 18 µM (inactive); with Hs-578T, 22.7 µM (inactive); with IGROV-1 it was 5.68 µM (inactive); in the assay with LOX IMVI it was 11.1 µM (inactive); in the assay with MDA-N it was 4.06 µM (inactive); with OVCAR-4, 9.95 µM (inactive). Further, the GI50 in the assay with OVCAR-8 was 16.2 µM (inactive); with SF-268, 11.6 µM (inactive); in the assay with SK-MEL-2 it was 8.15 µM (inactive); with SK-MEL-5, 7.19 µM (inactive); in the assay with UACC-62 it was 8.89 µM (inactive).

Turning to `CC(NC(NC(C)C12CC3CC(CC(C3)C1)C2)=C(C(Cl)=C(Cl)Cl)[N+](=O)[O-])C12CC3CC(CC(C3)C1)C2` (stereo not given), the GI50 in the assay with A498 was 36.1 µM (inactive); in the assay with ACHN it was 28.2 µM (inactive); with CAKI-1 it was 16.9 µM (inactive); with HCC 2998, 23.4 µM (inactive); with HCT-15, 18.7 µM; in the assay on HOP-62 it was 32.7 µM (inactive). Besides, the GI50 is 4.62 µM (inactive) in the assay on HT-29; 3.83 µM (inactive) with Hs-578T; 8.02 µM (inactive) in the assay with IGROV-1; 9.95 µM (inactive) with LOX IMVI; 22.7 µM (inactive) in the assay with MDA-N; 26.7 µM (inactive) with Malme-3M. For the same compound, the GI50 in the assay with OVCAR-4 is 8.3 µM (inactive); in the assay on OVCAR-8, 2.77 µM (inactive); with SF-268, 21.8 µM (inactive); in the assay on SK-MEL-2 it was 15 µM (inactive); in the assay on SK-MEL-5 it was 13.2 µM (inactive); in the assay on SNB-75, 43.4 µM (inactive). For the same compound, the GI50 in the assay on UACC-62 was 30 µM (inactive).

Source of the values: ChEMBL document CHEMBL1201862, “PubChem BioAssay data set” (2004).
